According to ChEMBL document CHEMBL1201862, “PubChem BioAssay data set” (2004):
pIC50: −log10 of the molar value. The source made the active and inactive calls.

Assays:
Cytochrome P450 2D6 = Cytochrome P450 2D6 (Homo sapiens, UniProt P10635);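 note: CYP2D6 member of a cytochrome P450 panel assay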
[1] = target: G-protein coupled receptor 55 (Homo sapiens, UniProt Q9Y2T6); experiment: SAR analysis of selective Agonists of GPR55 using an Image-Based Assay. [Related pubchem assays (depositor defined):AID1961, AID1965]; format: functional
Cannabinoid receptor 2 [2] = target: T1, Cannabinoid receptor 2 (Homo sapiens, UniProt P34972); experiment: SAR analysis of antagonists of the Cannabinoid Receptor 2 using an Image-Based Assay - Set 2. [Related pubchem assays (depositor defined):AID1961, AID1965]; format: functional
T1 sequence (P34972 whole entry): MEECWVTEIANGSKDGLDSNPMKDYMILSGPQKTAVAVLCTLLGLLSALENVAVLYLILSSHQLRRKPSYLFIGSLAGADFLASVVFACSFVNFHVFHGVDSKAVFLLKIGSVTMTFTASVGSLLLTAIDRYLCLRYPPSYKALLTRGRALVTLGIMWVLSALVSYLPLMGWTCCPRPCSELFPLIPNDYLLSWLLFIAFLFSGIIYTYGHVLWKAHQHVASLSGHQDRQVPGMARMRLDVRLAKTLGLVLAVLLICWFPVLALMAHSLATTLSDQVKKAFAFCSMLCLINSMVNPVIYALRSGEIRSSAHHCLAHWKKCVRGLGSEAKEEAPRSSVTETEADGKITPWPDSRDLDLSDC

Cannabinoid receptor 2 [3] = target: T1, Cannabinoid receptor 2; experiment: SAR analysis of agonists of the Cannabinoid Receptor 2 using an Image-Based Assay - Set 2. [Related pubchem assays (depositor defined):AID1961, AID1965]; format: functional
Cannabinoid receptor 1 = Cannabinoid receptor 1 (Homo sapiens, UniProt P21554); experiment: SAR analysis of antagonists of the Cannabinoid Receptor 1 using an Image-Based Assay. [Related pubchem assays (depositor defined):AID1961, AID1965]; format: functional
[4] = target: T2, Kappa-type opioid receptor (Homo sapiens, UniProt P41145); format: functional
T2 sequence (P41145 whole entry): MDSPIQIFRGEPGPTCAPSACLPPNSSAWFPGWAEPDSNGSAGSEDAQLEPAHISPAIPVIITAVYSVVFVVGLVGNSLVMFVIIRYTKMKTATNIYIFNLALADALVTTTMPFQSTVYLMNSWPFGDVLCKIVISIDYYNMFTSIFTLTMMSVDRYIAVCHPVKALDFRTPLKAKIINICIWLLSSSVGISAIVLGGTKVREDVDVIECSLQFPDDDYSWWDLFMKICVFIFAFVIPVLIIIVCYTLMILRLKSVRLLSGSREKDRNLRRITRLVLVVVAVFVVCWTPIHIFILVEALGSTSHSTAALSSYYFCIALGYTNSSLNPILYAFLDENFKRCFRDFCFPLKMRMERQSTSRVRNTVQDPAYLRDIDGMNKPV

Mu-type opioid receptor = Mu-type opioid receptor (Homo sapiens, UniProt P35372); experiment: HTS Image-Based Screen for Agonists of the MOR Receptor. [Related pubchem assays (depositor defined):AID1777, AID1785, AID1786, AID2133]; format: functional;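 note: imaging of beta-arrestin GFP recruitment into spots after receptor activation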
H9c2 = experiment: cells; format: functional, cell-based; settings: Rattus norvegicus, H9c2, Myocardium;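 note: confirmatory concentration-response retest of ultra-high-throughput screening hits for modulation of myocardial damage; cell death induced by hydrogen peroxide oxidative stress; compound pretreatment for 60 min then peroxide exposure for 2 h; potency is for protecting the cells against peroxide damage rather than for killing them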
[5] = Trypanosoma cruzi growth suppression in host cells – NIH3T3 host cells, beta-gal luminescence, confirmation (AID 2044); format: functional, cell-based;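 note: intracellular parasites grown in NIH/3T3 mouse fibroblasts as host cells; luminescent beta-galactosidase reporter signal from transgenic T. cruzi replicating inside host cells; inhibitors lower the luminescence signal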
Vero [6] = experiment: cells; format: functional; settings: Chlorocebus sabaeus
Beta-galactosidase = Beta-galactosidase (Escherichia coli, UniProt Q8VNN2); format: functional
[7] = target: T3, Delta-type opioid receptor (Homo sapiens, UniProt P41143); experiment: HTS Image-Based Screen for Antagonists of the DOR Receptor. [Related pubchem assays (depositor defined):AID1777, AID1785, AID1786, AID2133]; format: functional
T3 sequence (P41143 whole entry): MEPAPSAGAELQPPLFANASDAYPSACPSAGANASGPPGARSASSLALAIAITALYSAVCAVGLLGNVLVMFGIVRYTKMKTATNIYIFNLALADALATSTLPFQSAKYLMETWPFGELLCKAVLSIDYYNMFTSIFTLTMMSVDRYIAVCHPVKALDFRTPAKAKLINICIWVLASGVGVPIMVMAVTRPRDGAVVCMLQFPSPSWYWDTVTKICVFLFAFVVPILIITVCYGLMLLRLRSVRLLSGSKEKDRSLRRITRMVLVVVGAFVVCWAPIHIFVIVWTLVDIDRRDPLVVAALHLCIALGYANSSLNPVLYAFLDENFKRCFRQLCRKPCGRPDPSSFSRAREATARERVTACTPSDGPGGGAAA

[8] = NIH3T3 cell viability loss – ATP luminescence, mouse fibroblasts, counter-screen, dose response (AID 2010); format: functional, cell-based;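 note: cells exposed to compound for about 90 hours before reading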
[9] = tested on: Streptococcus sp. 'group A'; experiment: Streptococcus pyogenes SK(-)GAS viability under kanamycin – luminescence, BacTiterGlo, confirmation, counter-screen for streptokinase expression inhibitor project, dose response (AID 1900); format: functional, organism-based
Vero [10] = experiment: cells; format: functional, cell-based; settings: Chlorocebus sabaeus
[11] = target: T3, Delta-type opioid receptor; experiment: HTS Image-Based Screen for Agonists of the DOR Receptor. [Related pubchem assays (depositor defined):AID1777, AID1786, AID2133]; format: functional
Streptococcus = experiment: GAS UMAA2166 growth inhibition – luminescence, BacTiterGlo, counter-screen for streptokinase expression inhibitor project, dose response (AID 1915); format: functional, organism-based;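 note: potency for reduction of bacterial viability or growth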
[12] = target: T2, Kappa-type opioid receptor; format: functional; remark: listed apart in the source
[13] = target: Nucleotide-binding oligomerization domain-containing protein 2 (Homo sapiens, UniProt Q9HC29); experiment: inhibition of MDP-driven NOD2 NF-kB reporter – cell-based, set 3, SAR follow-up (AID 2799); format: functional
HEK293 = experiment: SAR analysis of compounds that are cytotoxic to HEK293 - Set 3. [Related pubchem assays (depositor defined):AID1575, AID1578, AID1848, AID1849, AID2001, AID2333, AID2334, AID2335, AID2337, AID2469]; format: functional, cell-based; settings: Homo sapiens
Tumor necrosis factor = Tumor necrosis factor (Homo sapiens, UniProt P01375); experiment: analog potency on TNFa NF-kB signaling – cell-based, set 3, SAR follow-up (AID 2801); format: functional
Chain of Tumor necrosis factor (P01375 whole entry, the tested form may be a part): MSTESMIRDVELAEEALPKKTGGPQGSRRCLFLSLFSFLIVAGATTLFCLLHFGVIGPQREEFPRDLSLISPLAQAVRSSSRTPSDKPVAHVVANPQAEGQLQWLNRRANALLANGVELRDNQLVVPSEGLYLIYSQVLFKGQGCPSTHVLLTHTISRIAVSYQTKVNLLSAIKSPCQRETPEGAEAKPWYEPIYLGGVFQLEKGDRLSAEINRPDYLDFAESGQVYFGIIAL

[14] = target: Nucleotide-binding oligomerization domain-containing protein 1 (Homo sapiens, UniProt Q9Y239); experiment: SAR analysis of compounds that inhibit NOD1 - Set 3. [Related pubchem assays (depositor defined):AID1566, AID1575, AID1578, AID1849, AID1852, AID2333, AID2335, AID2466]; format: functional
Chain of Nucleotide-binding oligomerization domain-containing protein 1 (Q9Y239 whole entry, the tested form may be a part): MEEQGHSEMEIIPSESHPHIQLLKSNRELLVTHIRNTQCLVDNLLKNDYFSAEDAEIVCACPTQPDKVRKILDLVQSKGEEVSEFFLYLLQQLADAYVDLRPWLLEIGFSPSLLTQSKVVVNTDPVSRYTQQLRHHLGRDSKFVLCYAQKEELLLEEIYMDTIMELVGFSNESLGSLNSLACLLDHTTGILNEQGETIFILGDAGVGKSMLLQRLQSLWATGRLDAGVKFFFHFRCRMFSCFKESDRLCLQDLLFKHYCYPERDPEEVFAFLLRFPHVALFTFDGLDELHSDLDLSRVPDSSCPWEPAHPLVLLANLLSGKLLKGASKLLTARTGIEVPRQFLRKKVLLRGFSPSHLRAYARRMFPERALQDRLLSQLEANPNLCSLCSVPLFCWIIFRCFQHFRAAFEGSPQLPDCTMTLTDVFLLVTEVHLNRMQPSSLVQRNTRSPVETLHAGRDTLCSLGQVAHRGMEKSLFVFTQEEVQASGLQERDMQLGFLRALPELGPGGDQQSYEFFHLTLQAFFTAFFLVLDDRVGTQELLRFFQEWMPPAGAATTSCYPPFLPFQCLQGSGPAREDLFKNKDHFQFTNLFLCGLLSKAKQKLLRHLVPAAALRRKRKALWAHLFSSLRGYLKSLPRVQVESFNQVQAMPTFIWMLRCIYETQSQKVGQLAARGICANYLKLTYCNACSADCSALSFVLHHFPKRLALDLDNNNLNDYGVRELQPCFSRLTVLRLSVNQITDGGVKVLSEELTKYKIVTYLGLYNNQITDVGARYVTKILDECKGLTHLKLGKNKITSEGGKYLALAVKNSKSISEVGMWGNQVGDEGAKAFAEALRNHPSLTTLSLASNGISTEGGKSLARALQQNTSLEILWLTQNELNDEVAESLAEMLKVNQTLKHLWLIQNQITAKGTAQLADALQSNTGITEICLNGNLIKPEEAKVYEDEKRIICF

[15] = target: T4, Serine/threonine-protein phosphatase (Candida dubliniensis (strain CD36 / CBS 7987 / NCPF 3949 / NRRLY-17841) (Yeast), UniProt B9W6M3); experiment: Fluorescence Cell-Based Secondary Assay to Identify Inhibitors of Calcineurin. [Related pubchem assays (depositor defined):AID1979, AID2007]; format: functional
T4 sequence (B9W6M3 whole entry): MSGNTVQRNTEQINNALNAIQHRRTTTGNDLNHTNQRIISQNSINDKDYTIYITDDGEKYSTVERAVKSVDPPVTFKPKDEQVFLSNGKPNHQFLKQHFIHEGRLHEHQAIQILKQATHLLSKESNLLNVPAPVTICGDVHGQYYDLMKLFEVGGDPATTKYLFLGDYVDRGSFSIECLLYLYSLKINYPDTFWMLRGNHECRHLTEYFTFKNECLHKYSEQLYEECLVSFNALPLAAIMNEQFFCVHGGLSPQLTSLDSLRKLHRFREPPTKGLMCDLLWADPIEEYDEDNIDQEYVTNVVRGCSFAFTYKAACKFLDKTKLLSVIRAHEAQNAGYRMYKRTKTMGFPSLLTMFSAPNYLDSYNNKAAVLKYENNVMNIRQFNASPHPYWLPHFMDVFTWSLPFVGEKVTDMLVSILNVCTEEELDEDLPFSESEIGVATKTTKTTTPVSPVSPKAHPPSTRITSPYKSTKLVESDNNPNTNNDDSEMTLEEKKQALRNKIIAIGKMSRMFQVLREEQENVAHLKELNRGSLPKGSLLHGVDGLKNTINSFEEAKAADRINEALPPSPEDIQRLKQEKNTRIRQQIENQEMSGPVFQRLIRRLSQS

[16] = target: T5, Dual specificity protein phosphatase 6 (Rattus norvegicus, UniProt Q64346); experiment: inhibition of rat DUSP6 enzyme activity – biochemical, in vitro, primary screen (AID 425)
T5 sequence (Q64346 whole entry): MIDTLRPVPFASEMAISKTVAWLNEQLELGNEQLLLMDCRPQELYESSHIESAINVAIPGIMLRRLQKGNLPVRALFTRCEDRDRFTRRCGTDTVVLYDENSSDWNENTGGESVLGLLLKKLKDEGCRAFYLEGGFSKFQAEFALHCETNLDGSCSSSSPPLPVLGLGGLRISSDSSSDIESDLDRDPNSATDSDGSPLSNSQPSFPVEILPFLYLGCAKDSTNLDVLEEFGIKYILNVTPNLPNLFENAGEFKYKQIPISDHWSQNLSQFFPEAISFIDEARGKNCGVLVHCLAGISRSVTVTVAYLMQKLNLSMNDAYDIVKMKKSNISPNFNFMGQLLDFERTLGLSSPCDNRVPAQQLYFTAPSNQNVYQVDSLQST

[17] = target: T6, Dual specificity protein phosphatase 3 (Homo sapiens, UniProt P51452); experiment: VHR1 phosphatase inhibitors, primary screen, biochemical, absorbance, uHTS (AID 1654)
T6 sequence (P51452 whole entry): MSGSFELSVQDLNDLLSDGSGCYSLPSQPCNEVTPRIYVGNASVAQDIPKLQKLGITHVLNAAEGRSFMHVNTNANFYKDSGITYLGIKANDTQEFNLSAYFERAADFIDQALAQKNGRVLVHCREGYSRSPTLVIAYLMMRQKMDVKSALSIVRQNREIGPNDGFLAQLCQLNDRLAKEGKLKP

[18] = target: T6, Dual specificity protein phosphatase 3; experiment: VHR1 phosphatase inhibitors, biochemical (AID 1878)
[19] = target: T7, Voltage-gated N-type calcium channel alpha-1B subunit/Amyloid beta A4 precursor protein-binding family A member 1 (Homo sapiens, UniProt Q00975+Q02410); format: protein assay
[20] = target: T7, Voltage-gated N-type calcium channel alpha-1B subunit/Amyloid beta A4 precursor protein-binding family A member 1; format: protein assay; remark: listed apart in the source
[21] = target: Lysine-specific demethylase 4A (Homo sapiens, UniProt O75164); experiment: inhibition of JMJD2A H3K9me3 demethylation – biochemical, DELFIA europium, cherry-picked samples, selectivity assay for GASC-1 inhibitor project, dose response (AID 488840)
[22] = target: T8, Lysine-specific demethylase 4C (Homo sapiens, UniProt Q9H3R0); experiment: inhibition of JMJD2C H3K9me3 demethylation – biochemical, DELFIA europium, cherry-picked samples, dose response (AID 488835); format: functional
T8 sequence (Q9H3R0 whole entry): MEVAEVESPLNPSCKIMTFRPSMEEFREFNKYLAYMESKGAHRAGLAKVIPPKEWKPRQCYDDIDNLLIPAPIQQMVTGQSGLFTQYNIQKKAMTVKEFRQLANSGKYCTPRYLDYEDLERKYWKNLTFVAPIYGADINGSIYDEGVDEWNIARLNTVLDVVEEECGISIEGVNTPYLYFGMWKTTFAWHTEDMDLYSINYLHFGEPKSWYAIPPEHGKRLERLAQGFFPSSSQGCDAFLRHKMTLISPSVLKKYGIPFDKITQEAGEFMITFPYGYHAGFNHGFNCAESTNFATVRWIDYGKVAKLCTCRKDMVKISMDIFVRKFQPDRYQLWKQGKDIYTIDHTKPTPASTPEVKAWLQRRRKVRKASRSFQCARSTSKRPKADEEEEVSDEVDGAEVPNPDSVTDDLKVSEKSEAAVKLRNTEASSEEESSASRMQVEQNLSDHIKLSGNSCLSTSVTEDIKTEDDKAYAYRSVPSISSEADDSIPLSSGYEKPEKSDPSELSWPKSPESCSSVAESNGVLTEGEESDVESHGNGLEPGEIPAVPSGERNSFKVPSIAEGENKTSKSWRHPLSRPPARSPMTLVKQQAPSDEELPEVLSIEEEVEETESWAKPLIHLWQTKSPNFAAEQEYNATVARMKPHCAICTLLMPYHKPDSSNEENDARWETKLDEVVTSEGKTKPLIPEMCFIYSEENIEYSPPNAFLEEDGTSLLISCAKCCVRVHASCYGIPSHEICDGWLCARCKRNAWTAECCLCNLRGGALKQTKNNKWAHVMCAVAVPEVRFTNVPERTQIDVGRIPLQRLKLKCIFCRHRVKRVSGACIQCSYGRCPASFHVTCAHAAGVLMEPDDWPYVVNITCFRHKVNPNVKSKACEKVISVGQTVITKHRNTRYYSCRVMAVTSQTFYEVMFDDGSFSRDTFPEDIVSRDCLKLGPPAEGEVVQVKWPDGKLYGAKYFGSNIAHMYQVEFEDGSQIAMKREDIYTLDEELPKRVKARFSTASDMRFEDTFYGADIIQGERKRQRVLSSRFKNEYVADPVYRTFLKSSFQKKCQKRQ

Fatty acid synthase [23] = target: T9, Fatty acid synthase (Homo sapiens, UniProt P49327); experiment: inhibition of human FAS-TE enzyme activity – biochemical, endpoint fluorescence intensity, uHTS hits, dose response (AID 624327); format: functional;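 note: fluorescence from hydrolysis of an O-methyl fluorescein acyl ester substrate by the enzyme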
T9 sequence (P49327 whole entry): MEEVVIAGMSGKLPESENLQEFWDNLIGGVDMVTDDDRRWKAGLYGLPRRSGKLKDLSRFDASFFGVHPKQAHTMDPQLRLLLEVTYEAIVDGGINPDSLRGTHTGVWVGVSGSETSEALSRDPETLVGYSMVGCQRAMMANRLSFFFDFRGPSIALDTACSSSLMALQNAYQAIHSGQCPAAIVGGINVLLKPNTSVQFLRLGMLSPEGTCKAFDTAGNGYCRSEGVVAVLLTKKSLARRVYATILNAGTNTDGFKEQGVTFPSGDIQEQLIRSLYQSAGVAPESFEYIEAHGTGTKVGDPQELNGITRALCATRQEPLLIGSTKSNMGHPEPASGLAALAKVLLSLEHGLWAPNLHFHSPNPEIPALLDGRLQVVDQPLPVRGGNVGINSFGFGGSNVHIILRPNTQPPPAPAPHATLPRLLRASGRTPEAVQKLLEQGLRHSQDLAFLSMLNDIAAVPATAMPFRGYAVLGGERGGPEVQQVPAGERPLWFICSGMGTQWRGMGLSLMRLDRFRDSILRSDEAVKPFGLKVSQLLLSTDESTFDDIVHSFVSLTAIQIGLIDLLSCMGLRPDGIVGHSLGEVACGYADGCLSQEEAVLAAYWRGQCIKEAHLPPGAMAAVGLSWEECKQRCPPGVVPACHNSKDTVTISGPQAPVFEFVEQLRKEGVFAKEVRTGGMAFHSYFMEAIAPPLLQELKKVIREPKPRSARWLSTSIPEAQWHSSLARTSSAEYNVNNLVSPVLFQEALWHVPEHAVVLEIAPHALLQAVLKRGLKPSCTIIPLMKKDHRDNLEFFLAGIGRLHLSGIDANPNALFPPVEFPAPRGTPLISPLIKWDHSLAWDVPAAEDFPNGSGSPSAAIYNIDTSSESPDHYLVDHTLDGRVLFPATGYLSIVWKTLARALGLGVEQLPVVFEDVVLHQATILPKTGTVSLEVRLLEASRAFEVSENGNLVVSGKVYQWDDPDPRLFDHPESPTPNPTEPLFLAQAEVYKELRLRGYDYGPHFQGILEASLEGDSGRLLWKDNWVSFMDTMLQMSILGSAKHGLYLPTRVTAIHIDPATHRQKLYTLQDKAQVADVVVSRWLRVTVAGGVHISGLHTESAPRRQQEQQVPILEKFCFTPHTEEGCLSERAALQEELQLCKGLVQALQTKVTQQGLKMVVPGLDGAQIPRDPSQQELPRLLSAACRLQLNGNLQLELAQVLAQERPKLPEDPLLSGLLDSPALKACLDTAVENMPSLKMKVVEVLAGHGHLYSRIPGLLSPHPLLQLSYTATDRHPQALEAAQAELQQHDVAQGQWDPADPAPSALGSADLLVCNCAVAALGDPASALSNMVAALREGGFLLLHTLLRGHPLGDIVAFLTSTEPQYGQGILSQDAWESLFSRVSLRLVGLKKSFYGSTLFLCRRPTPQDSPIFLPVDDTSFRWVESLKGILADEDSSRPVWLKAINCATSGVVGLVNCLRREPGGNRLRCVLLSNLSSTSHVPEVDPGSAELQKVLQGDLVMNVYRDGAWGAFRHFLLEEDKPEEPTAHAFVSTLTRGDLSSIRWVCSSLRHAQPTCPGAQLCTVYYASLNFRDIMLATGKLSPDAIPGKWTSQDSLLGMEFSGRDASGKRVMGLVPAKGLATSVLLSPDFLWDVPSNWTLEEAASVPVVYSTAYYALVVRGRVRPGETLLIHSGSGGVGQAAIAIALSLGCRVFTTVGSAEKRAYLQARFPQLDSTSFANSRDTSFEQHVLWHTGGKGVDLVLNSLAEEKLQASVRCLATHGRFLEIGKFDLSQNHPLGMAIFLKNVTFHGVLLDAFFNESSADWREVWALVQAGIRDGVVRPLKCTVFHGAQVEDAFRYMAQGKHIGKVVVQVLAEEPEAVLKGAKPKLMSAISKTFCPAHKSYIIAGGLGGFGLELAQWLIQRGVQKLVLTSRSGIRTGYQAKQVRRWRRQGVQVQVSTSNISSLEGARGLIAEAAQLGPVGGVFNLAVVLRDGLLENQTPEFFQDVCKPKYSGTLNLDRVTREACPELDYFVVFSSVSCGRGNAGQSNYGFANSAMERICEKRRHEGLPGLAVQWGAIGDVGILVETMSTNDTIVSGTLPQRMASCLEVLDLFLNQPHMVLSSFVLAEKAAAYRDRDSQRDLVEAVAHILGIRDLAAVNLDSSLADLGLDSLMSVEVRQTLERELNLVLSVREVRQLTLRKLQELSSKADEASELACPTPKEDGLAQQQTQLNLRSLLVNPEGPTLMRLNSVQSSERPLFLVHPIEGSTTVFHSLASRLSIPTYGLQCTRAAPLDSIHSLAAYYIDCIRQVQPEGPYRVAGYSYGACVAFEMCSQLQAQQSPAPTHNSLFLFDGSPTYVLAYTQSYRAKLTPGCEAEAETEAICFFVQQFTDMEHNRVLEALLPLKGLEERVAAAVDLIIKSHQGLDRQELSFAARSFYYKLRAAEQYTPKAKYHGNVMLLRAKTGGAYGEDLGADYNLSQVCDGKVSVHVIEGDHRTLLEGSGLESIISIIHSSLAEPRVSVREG

Fatty acid synthase [24] = target: T9, Fatty acid synthase; experiment: inhibition of human FAS-TE enzyme activity – biochemical, kinetic fluorescence intensity, dose response (AID 624326); format: functional;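 note: rate of fluorescence rise from hydrolysis of a fluorogenic O-methyl fluorescein ester substrate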
Cytochrome P450 1A2 = target: T10, Cytochrome P450 1A2 (Homo sapiens, UniProt P05177);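 note: PubChem cytochrome P450 panel assay, CYP1A2 panel member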
T10 sequence (P05177 whole entry): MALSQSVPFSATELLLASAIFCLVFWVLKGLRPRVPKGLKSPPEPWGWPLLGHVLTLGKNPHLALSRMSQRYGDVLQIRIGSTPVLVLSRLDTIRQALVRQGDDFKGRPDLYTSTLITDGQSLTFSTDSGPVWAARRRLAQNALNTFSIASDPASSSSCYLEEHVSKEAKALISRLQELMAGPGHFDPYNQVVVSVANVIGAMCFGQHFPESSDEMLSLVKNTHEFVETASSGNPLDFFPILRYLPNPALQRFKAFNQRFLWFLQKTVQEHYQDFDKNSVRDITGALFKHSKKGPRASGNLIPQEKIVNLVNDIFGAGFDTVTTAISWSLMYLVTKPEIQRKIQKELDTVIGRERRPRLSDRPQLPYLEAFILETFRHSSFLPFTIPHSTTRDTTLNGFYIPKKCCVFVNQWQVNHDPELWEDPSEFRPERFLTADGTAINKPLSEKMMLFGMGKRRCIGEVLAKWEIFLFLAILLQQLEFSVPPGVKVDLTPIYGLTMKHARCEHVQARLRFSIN

Cytochrome P450 2C9 = Cytochrome P450 2C9 (Homo sapiens, UniProt P11712)

O=C(c1ccccc1)c1nn(-c2ccccc2)c(=O)cc1C(F)(F)F
AC50 (Cytochrome P450 2D6): inconclusive

CCCN(CCC)Cc1c(C(=O)NN=C/C(C)=C\c2ccccc2)nnn1-c1nonc1N
EC50 [1]: 0.325 µM (active) | IC50 (Cannabinoid receptor 2 [2]): > 32 µM (inactive) | EC50 (Cannabinoid receptor 2 [3]): > 32 µM (inactive) | IC50 (Cannabinoid receptor 1): > 32 µM (inactive)

CC(Oc1ccc(Br)cc1)C(=O)Nc1nc(-c2ccccn2)cs1 (centres undefined)
pIC50 [4]: < 4.49 | EC50 (Mu-type opioid receptor): > 32 µM (inactive) | IC50 (H9c2): > 79 µM (inactive) | EC50 [5]: 0.909 µM (active) | CC50 (Vero [6]): 9.95 µM (active) | EC50 (Beta-galactosidase): > 31.5 µM (inactive) | IC50 [7]: > 32 µM (inactive) | EC50 [8]: 5.27 µM (active) | EC50 [9]: 0.211 µM (active) | IC50 (Vero [10]): > 25 µM (active) | EC50 [11]: > 32 µM (inactive) | EC50 (Streptococcus): 2.24 µM (active) | IC50 [12]: 5.42 µM (active)

Nc1nc2ccccc2n1S(=O)(=O)c1ccc(C(F)(F)F)cc1
IC50 [13]: > 20 µM (inactive) | IC50 (HEK293): > 20 µM (inactive) | IC50 (Tumor necrosis factor): > 20 µM (inactive) | IC50 [14]: 0.955 µM (active)

CCOC(=O)N1C(=O)C2(CCCCC2)N(c2ccc(C)cc2)C1=S
EC50 [15]: > 285 µM (inactive)

CCOC(=O)C1=C(C)N=c2s/c(=C/c3ccc(OCC(=O)O)cc3)c(=O)n2C1c1ccc(SC)cc1 (centres undefined)
IC50 [16]: 72.6 µM (active) | IC50 [17]: 9.18 µM (active) | IC50 [18]: 6.94 µM (active) | IC50 [19]: 10.4 µM (active) | IC50 [20]: > 50 µM (inactive)

O=C(N/N=C/c1cc([N+](=O)[O-])cc([N+](=O)[O-])c1O)C(O)(c1ccccc1)c1ccccc1
AC50 [21]: 3.47 µM (active) | AC50 [22]: 2 µM (active) | IC50 (Fatty acid synthase [23]): 16.1 µM (active) | IC50 (Fatty acid synthase [24]): 8.77 µM (active)

C=C[C@H]1C[N@@]2CC[C@H]1C[C@@H]2[C@@H](O)c1ccnc2ccc(OC)cc12 [QUINIDINE]
AC50 (Cytochrome P450 1A2): inactive | AC50 (Cytochrome P450 2C9): inactive
